From US20180221329A1, “CIS- AND TRANS-SUFFRUTICOSOL D AS THERAPEUTIC AGENTS” (MIDDLE TENNESSEE STATE UNIVERSITY, priority 2015, published 2018)

Assays:
Assay type in all cases: cell-based, human
[1] = test system: A549 cells; assay: Multi-parameter cytotoxicity assay (HCS); details: 24 h; for mitochondrial membrane potential: all tested concentrations
Procedure: FIGS. 5A-D depict multi-parameter analysis of cytotoxicity induced by cis- and trans-suffruticosol D in A549 cells. A549 cells were treated with various concentrations of cis- or trans-suffruticosol D for 24 h, then stained with three dyes simultaneously (Hoechst, cell permeability dye, and mitochondrial membrane potential dye). Cells treated with vehicle only served as a negative control and cells treated with 10 μM valinomycin served as a positive control.
Multi-parameter cytotoxicity assay. HCS analysis was used to measure nuclear morphology, cell membrane permeability, and mitochondrial membrane potential changes, the three parameters associated with cytotoxicity. A549 cells were treated with different concentrations of cis- or trans-suffruticosol D for 24 h. The cells were then fixed and stained with a warm solution containing Hoechst dye, Membrane Permeability Dye, and Mitochondrial membrane Potential Dye (Thermo Scientific, Waltham, Mass., USA). Cells were imaged using an Arrayscan VTI HCS reader (Thermo Scientific, Waltham, Mass., USA). Data on nuclear size, cell permeability, and mitochondria membrane potential were collected and analyzed using vHCS Scan software.

[2] = test system: phosphorylated NF-κB p65; assay: Western blotting analysis of TNF-α-induced NF-κB p65 phosphorylation; details: 50 μM, 3 h, then 10 ng/mL TNF-α 30 min, A549
Procedure: Western blotting analysis. A549 cells were treated with 50 μM of cis- or trans-suffruticosol D for 3 h then incubated with 10 ng/mL of TNF-α for 30 min. Cells treated with the NF-κB inhibitor Bay11-7082 (10 μM) (Sigma-Aldrich) were used as a positive control, and cells treated with vehicle only were used as a negative control. After treatment, the cells were lysed using M-PER mammalian protein extraction reagent (Pierce PERBIO, Rockford, Ill.) containing proteinase and phosphatase inhibitors (Sigma-Aldrich, USA) and centrifuged at 13,000 rpm for 5 min at 4° C. A Pierce BCA protein assay kit (Thermo Fisher Scientific, Waltham, Mass., USA) was used to determined protein concentrations. Proteins were separated on a 4-20% Tris Glycine gel (Thermo Fisher Scientific, Waltham, Mass., USA), and electrophoretically transferred to a PVDF membrane. The following primary antibodies were used: phosphorylated-NF-κB p65, NF-κB p65 (Cell Signaling Technology, Danver, Mass.) and actin (Santa Cruz Biotechnology, Dallas, Tex.). The membrane was incubated with the primary antibodies at a 1:1000 concentration at 4° C. overnight. After washing with 1×PBS 5 times, the membrane was incubated for 2 h at room temperature with HRP linked anti-rabbit IgG secondary antibodies. […]

[3] = test system: NF-κB p65 nuclear translocation; assay: NF-κB nuclear translocation assay (HCS); details: 4 h, then TNF-α 30 min, A549
Procedure: FIGS. 6A and 6B depict inhibition of NF-κB translocation by cis- and trans-suffruticosol D in A549 cells. A549 cells were treated with various concentrations of cis- or trans-suffruticosol D for 4 h and then stimulated with […] TNF-α for 30 min. Cells treated with TNF-α alone or the vehicle only served as controls. The NF-κB translocation index was measured by the fluorescent intensity difference between the nucleus and cytoplasm.
NF-κB nuclear translocation assay. A Multiplexed NF-κB activation HCS Kit (Thermo Scientific, Waltham, Mass., USA) was used to assess NF-κB nuclear translocation. A549 cells were pre-treated with different concentrations of cis- or trans-suffruticosol D for 4 h, then 10 ng/mL of TNF-α was added to the cells for an additional 30 min. After treatment, cells were fixed and permeabilized prior to detection. NF-κB distribution was detected by adding NF-κB p65 primary antibodies and then staining with a secondary antibody conjugated with DyLight 549 and Hoechst dye (Thermo Scientific, Waltham, Mass., USA). […] Cells were imaged using an Arrayscan VTI HCS reader (Thermo Scientific, Waltham, Mass., USA). Data on the mean difference of NF-κB fluorescent intensity between the nuclear and cytoplasmic areas were collected and analyzed by vHCS Scan software.

Row | SMILES | cell membrane permeability ([1]; 100 μM) | nuclear size ([1]; 100 μM) | mitochondrial membrane potential [1] | expression of phosphorylated NF-κB p65 upon TNF-α stimulation [2] | inhibition of NF-κB activation (nuclear translocation index) ([3]; all the tested concentrations) | cell membrane permeability ([1]; various concentrations) | nuclear size ([1]; various concentrations) | inhibition of NF-κB activation (nuclear translocation index) ([3]; 100 μM only)
1 | Oc1ccc(/C=C/c2c3c(cc4c2[C@@H](c2cc(O)cc(O)c2)[C@H](c2ccc(O)cc2)O4)O[C@H](c2ccc(O)cc2)[C@@H]3c2cc(O)cc(O)c2)cc1 [trans-suffruticosol D] | increased cell membrane permeability | nuclei shrinkage | significant decrease | almost completely blocked | significant inhibition | – | – | –
2 | Oc1ccc(C=Cc2c3c(cc4c2[C@@H](c2cc(O)cc(O)c2)[C@H](c2ccc(O)cc2)O4)O[C@H](c2ccc(O)cc2)[C@@H]3c2cc(O)cc(O)c2)cc1 [cis-suffruticosol D] | – | – | significant decrease | blocked as effectively as the blockage caused by the Bay11-7082 inhibitor control | – | no significant change | no significant change | significant inhibition
